Experimental findings from patent publication US20240228488A1 (TAKEDA PHARMACEUTICAL COMPANY LIMITED, priority 2021, published 2024) are described below.

Usually EC50 stands for the midpoint of the concentration-response curve. In general, IC90 refers to the concentration at which the effect reaches the 90% level.

Experiment [1] has as its target human activated kallikrein enzyme (Homo sapiens, UniProt P03952). As to the kind of experiment: Plasma kallikrein inhibition, fluorogenic PFR-AMC substrate, 500 pM activated kallikrein format. The settings on record: 500 pM activated kallikrein, 300 uM PFR-AMC, 30 min preincubation, 10 min reaction; read-out: Primary Dose Response Assay: Average EC50. The experiment is classed as biochemical. In outline:
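Fluorogenic readout (ex 380 / em 460 nm) after 10 min room-temperature reaction with 300 uM Pro-Phe-Arg-AMC substrate, following 30 min preincubation of inhibitors with 500 pM enzyme. Buffer: Tris pH 7.5, EDTA, NaCl, PEG-400, Triton X-100. Values given as EC50 ranges.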

The target of experiment [2] is T1, plasma kallikrein (Homo sapiens, UniProt P03952).
T1 construct: from tissue
T1 sequence (P03952 391-638 limits assumed): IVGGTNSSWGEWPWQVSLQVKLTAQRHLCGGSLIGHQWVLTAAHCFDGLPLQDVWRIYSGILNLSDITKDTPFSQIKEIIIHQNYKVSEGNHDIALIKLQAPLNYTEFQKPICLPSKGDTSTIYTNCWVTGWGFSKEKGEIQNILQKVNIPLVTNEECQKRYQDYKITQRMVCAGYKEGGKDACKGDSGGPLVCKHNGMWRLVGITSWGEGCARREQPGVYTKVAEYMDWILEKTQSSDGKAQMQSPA
T1 sequence (P03952 20-390 partner limits assumed): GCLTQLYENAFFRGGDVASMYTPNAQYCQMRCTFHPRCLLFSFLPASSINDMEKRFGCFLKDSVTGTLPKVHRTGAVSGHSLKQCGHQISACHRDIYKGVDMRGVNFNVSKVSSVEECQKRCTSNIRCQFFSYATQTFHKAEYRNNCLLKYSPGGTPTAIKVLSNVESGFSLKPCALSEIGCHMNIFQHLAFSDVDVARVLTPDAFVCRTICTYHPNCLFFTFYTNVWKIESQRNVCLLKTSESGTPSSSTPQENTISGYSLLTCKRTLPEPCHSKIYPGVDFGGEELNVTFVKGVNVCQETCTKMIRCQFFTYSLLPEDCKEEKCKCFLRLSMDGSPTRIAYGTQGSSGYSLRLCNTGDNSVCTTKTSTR
As to the kind of experiment: Neat human plasma assay, FXIIa contact pathway-activated, PFR-AMC substrate. The experiment is classed as biochemical. The note with it: citrated human plasma 78% final, 10 nM human FXIIa, 100 μM PFR-AMC; read-out: Human Plasma Assay: IC90. In outline:
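Compound inhibition of plasma kallikrein measured as PFR-AMC (100 μM) cleavage rate over 5 min at room temperature in 78% citrated human plasma activated with 10 nM FXIIa (Tris pH 7.5 buffer). IC50/IC90 from 4-parameter fit of rate versus inhibitor concentration.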

Sequence of human activated kallikrein enzyme (P03952 391-638 limits assumed): as the sequence (P03952 391-638 limits assumed) above
Sequence of human activated kallikrein enzyme (P03952 20-390 partner limits assumed): as the sequence (P03952 20-390 partner limits assumed) above

As to `O=C(Nc1cc(NCc2cn3cc(C4CC4)cc(N4CCNC4=O)c3n2)ncn1)[C@H]1C[C@@H]1c1cccc(Cl)c1` [Example 309, (1S,2S)-2-(3-chlorophenyl)-N-(6-(((6-cyclopropyl-8-(2-oxoimidazolidin-1-yl)imidazo[1,2-a]pyridin-2-yl)methyl)amino)pyrimidin-4-yl)cyclopropane-1-carboxamide], the half-maximal effective concentration (EC50) in experiment [1] was less than 1 nM. Also, the IC90 in experiment [2] fell in the range of 1500 to 10000 nM.

With `O=C(Nc1cc(NCc2cn3cc(C4CC4)cc(N4CCS(=O)(=O)CC4)c3n2)ncn1)[C@H]1C[C@@H]1c1cc(Cl)ccn1` [Example 326, (1S,2S)-2-(4-chloropyridin-2-yl)-N-(6-(((6-cyclopropyl-8-(1,1-dioxidothiomorpholino)imidazo[1,2-a]pyridin-2-yl)methyl)amino)pyrimidin-4-yl)cyclopropane-1-carboxamide], the EC50 in experiment [1] is less than 1 nM. In addition, the concentration for an effect of 90% (IC90) in experiment [2] fell in the range of 400 to 1500 nM.

For the molecule `O=C(Nc1cc(NCc2cn3cc(C4CC4)cc(N4CC5CC5C4=O)c3n2)ncn1)[C@H]1C[C@@H]1c1cc(Cl)ccn1` (stereo partly drawn) [Example 327, (1S,2S)-2-(4-chloropyridin-2-yl)-N-(6-(((6-cyclopropyl-8-(2-oxo-3-azabicyclo[3.1.0]hexan-3-yl)imidazo[1,2-a]pyridin-2-yl)methyl)amino)pyrimidin-4-yl)cyclopropane-1-carboxamide], in experiment [1], the half-maximal effective concentration (EC50) is less than 1 nM. Also, in experiment [2], the IC90 is less than 400 nM.

Turning to `Cc1cc(NCc2cn3cc(C4CC4)ccc3n2)cc(NC(=O)[C@H]2C[C@@H]2c2cccc(Cl)c2)n1` [Example 338, (1S,2S)-2-(3-chlorophenyl)-N-(4-(((6-cyclopropylimidazo[1,2-a]pyridin-2-yl)methyl)amino)-6-methylpyridin-2-yl)cyclopropane-1-carboxamide], in experiment [1], the EC50 was less than 1 nM. In addition, in experiment [2], the IC90 lay in the range of 1500 to 10000 nM.

For the molecule `O=C(Nc1cc(NCc2cn3cc(C4CC4)ccc3n2)cc(CCN2CCOCC2)n1)[C@H]1C[C@@H]1c1cccc(Cl)c1` [Example 341, (1S,2S)-2-(3-chlorophenyl)-N-(4-(((6-cyclopropylimidazo[1,2-a]pyridin-2-yl)methyl)amino)-6-(2-morpholinoethyl)pyridin-2-yl)cyclopropane-1-carboxamide], the EC50 in experiment [1] is 1 to 10 nM. The concentration for an effect of 90% (IC90) in experiment [2] fell in the range of 1500 to 10000 nM.

Consider `O=C(Nc1cc(NCc2cn3cc(C4CC4)ccc3n2)cc(=O)[nH]1)[C@H]1C[C@@H]1c1cc(Cl)ccn1` [Example 343, (1S,2S)-2-(4-chloropyridin-2-yl)-N-(4-(((6-cyclopropylimidazo[1,2-a]pyridin-2-yl)methyl)amino)-6-oxo-1,6-dihydropyridin-2-yl)cyclopropane-1-carboxamide], for which, in experiment [1], the EC50 is less than 1 nM. Moreover, in experiment [2], the IC90 was in the range of 1500 to 10000 nM.

For `COCc1nc(NC(=O)[C@H]2C[C@@H]2c2nccc(C)n2)cc(N(C)Cc2cn3cc(C4CC4)cc(N4CC(=O)N(C)C4=O)c3n2)n1` [Example 354, (1S,2S)-N-(6-(((6-cyclopropyl-8-(3-methyl-2,4-dioxoimidazolidin-1-yl)imidazo[1,2-a]pyridin-2-yl)methyl)(methyl)amino)-2-(methoxymethyl)pyrimidin-4-yl)-2-(4-methylpyrimidin-2-yl)cyclopropane-1-carboxamide], in experiment [1], the EC50 is less than 1 nM. For the same molecule, the IC90 in experiment [2] was less than 400 nM.

For the molecule `COCc1nc(NC(=O)[C@H]2C[C@@H]2c2nccc(C)n2)cc(N[C@H](C)c2cn3cc(C4CC4)cc(N4CC(=O)N(C)C4=O)c3n2)n1` [Example 355, (1S,2S)-N-(6-(((R)-1-(6-cyclopropyl-8-(3-methyl-2,4-dioxoimidazolidin-1-yl)imidazo[1,2-a]pyridin-2-yl)ethyl)amino)-2-(methoxymethyl)pyrimidin-4-yl)-2-(4-methylpyrimidin-2-yl)cyclopropane-1-carboxamide], the EC50 in experiment [1] is less than 1 nM. The concentration for an effect of 90% (IC90) in experiment [2] is less than 400 nM.

In the case of `Cc1ccnc([C@H]2C[C@@H]2C(=O)Nc2cc(NC(C)c3cn4cc(Cl)cc(N5CC(=O)N(C)C5=O)c4n3)nc(C)n2)n1` (stereo partly drawn) [Example 356, (1S,2S)-N-(6-((1-(6-chloro-8-(3-methyl-2,4-dioxoimidazolidin-1-yl)imidazo[1,2-a]pyridin-2-yl)ethyl)amino)-2-methylpyrimidin-4-yl)-2-(4-methylpyrimidin-2-yl)cyclopropane-1-carboxamide], the EC50 in experiment [1] is less than 1 nM. Moreover, the IC90 in experiment [2] was 1500 to 10000 nM.

On to `Cc1ccnc([C@H]2C[C@@H]2C(=O)Nc2cc(NCc3cn4cc(C5CC5)cc(N5C(=O)N(C)C(=O)C56CC6)c4n3)nc(C)n2)n1` [Example 357, (1S,2S)-N-(6-(((6-cyclopropyl-8-(6-methyl-5,7-dioxo-4,6-diazaspiro[2.4]heptan-4-yl)imidazo[1,2-a]pyridin-2-yl)methyl)amino)-2-methylpyrimidin-4-yl)-2-(4-methylpyrimidin-2-yl)cyclopropane-1-carboxamide], for which, in experiment [1], the 50% effective concentration (EC50) was less than 1 nM. In addition, the IC90 in experiment [2] was less than 400 nM.

Consider `CC[C@@H](Nc1cc(NC(=O)[C@H]2C[C@@H]2c2nccc(C)n2)nc(C)n1)c1cn2cc(C3CC3)cc(N3CC(=O)N(C)C3=O)c2n1` [Example 358, (1S,2S)-N-(6-(((R)-1-(6-cyclopropyl-8-(3-methyl-2,4-dioxoimidazolidin-1-yl)imidazo[1,2-a]pyridin-2-yl)propyl)amino)-2-methylpyrimidin-4-yl)-2-(4-methylpyrimidin-2-yl)cyclopropane-1-carboxamide], for which the EC50 in experiment [1] is less than 1 nM. The 90% effect concentration (IC90) in experiment [2] lay within 400 to 1500 nM.

With `Cc1ccnc([C@H]2C[C@@H]2C(=O)Nc2cc(N(C)Cc3cn4cc(C5CC5)cc(N5CC(=O)N(CC(C)(C)O)C5=O)c4n3)nc(C)n2)n1` [Example 359, (1S,2S)-N-(6-(((6-cyclopropyl-8-(3-(2-hydroxy-2-methylpropyl)-2,4-dioxoimidazolidin-1-yl)imidazo[1,2-a]pyridin-2-yl)methyl)(methyl)amino)-2-methylpyrimidin-4-yl)-2-(4-methylpyrimidin-2-yl)cyclopropane-1-carboxamide], the 50% effective concentration (EC50) in experiment [1] was less than 1 nM. Further, the 90% effect concentration (IC90) in experiment [2] lay in the range of 400 to 1500 nM.

Regarding `CCN(Cc1cn2cc(C3CC3)cc(N3CC(=O)N(C)C3=O)c2n1)c1cc(NC(=O)[C@H]2C[C@@H]2c2nccc(C)n2)nc(C)n1` [Example 360, (1S,2S)-N-(6-(((6-cyclopropyl-8-(3-methyl-2,4-dioxoimidazolidin-1-yl)imidazo[1,2-a]pyridin-2-yl)methyl)(ethyl)amino)-2-methylpyrimidin-4-yl)-2-(4-methylpyrimidin-2-yl)cyclopropane-1-carboxamide], the EC50 in experiment [1] fell in the range of 1 to 10 nM. Also, the IC90 in experiment [2] fell in the range of 400 to 1500 nM.

Consider `Cc1ccnc([C@H]2C[C@@H]2C(=O)Nc2cc(N[C@H](C)c3cn4cc(C5CC5)cc(S(C)(=O)=O)c4n3)nc(C)n2)n1` [Example 361, (1S,2S)-N-(6-(((R)-1-(6-cyclopropyl-8-(methylsulfonyl)imidazo[1,2-a]pyridin-2-yl)ethyl)amino)-2-methylpyrimidin-4-yl)-2-(4-methylpyrimidin-2-yl)cyclopropane-1-carboxamide], for which, in experiment [1], the EC50 was less than 1 nM. Also, the IC90 in experiment [2] was 400 to 1500 nM.

For the molecule `Cc1ccnc([C@H]2C[C@@H]2C(=O)Nc2cc(NC(C)c3cn4cc(C5CC5)cc(S(C)(=O)=O)c4n3)nc(C)n2)n1` (stereo partly drawn) [Example 363, (1S,2S)-N-(6-((1-(6-cyclopropyl-8-(methylsulfonyl)imidazo[1,2-a]pyridin-2-yl)ethyl)amino)-2-methylpyrimidin-4-yl)-2-(4-methylpyrimidin-2-yl)cyclopropane-1-carboxamide], the concentration giving a half-maximal response (EC50) in experiment [1] was less than 1 nM. The 90% effect concentration (IC90) in experiment [2] is 1500 to 10000 nM.
